In patent publication US9956179B2, “Process and apparatuses for preparing nanoparticle compositions with amphiphilic copolymers and their use” (The Trustees of Princeton University, priority 2001, dated 2018):

Assay: Particle size distribution by Malvern Mastersizer S (volume basis)
Assay type: physicochemical
Conditions: first analysis after formation, diluted with water
Protocol: For the examples containing a substantial fraction of nanoparticles <100 nm in diameter, photon correlation spectroscopy was performed on a Brookhaven with an ALV5000 multiple tau correlator to determine the average particle size using a second order cumulant fit. In accordance with standard practice, the viscosity and index of refraction of the solvent at a volume percentage the same as after mixing were input as properties of the fluid. A Malvern Mastersizer S version 2.18 was also used to determine the particle size distribution based on volume, or similar to a weight. Likewise, the average particle size was based on volume or mass, D[4,3]. The data analysis used a polydisperse model and the Standard-Wet (3OHD) presentation that assumes the particle is suspended in water. Some samples were diluted with water for analysis. For all processing conditions, the water used was purified by RO and filtered and the temperature is given within 2° C. The polymer blocks were nominal molecular weight with the nomenclature (1000) describing a block nominally of 1000 g/mole. The blocks could have contained minor impurities (<10% by weight and typically <5% by weight) due to the method of synthesis.

## CC1=C(/C=C/C(C)=C/C=C/C(C)=C/C=C/C=C(C)/C=C/C=C(C)/C=C/C2=C(C)CCCC2(C)C)C(C)(C)CCC1 [β-carotene]
  Mean size D[4,3]: 120 μm
  Yield of nanoparticles below 1060 nm: 9%
